# Data: ChEMBL document CHEMBL4725408, “Antibacterial Spiropyrimidinetriones with N-Linked Azole Substituents on a Benzisoxazole Scaffold Targeting DNA Gyrase” (J Med Chem, 2020)
# Key:
# Escherichia coli = assay: Antibacterial activity against Escherichia coli ARC523 by broth microdilution method; type: functional
# Staphylococcus aureus [1] = assay: Antibacterial activity against methicillin/quinolone-resistant Staphylococcus aureus ARC517 by broth microdilution method; type: functional
# Streptococcus pyogenes = assay: Antibacterial activity against Streptococcus pyogenes ARC838 by broth microdilution method; type: functional
# [2] = Protein binding in human plasma assessed as unbound fraction at 10 uM measured after 16 hrs by LC-MS/MS based equilibrium dialysis method; type: ADME, cell-free
# Haemophilus influenzae = assay: Antibacterial activity against Haemophilus influenzae ARC737 by broth microdilution method; type: functional
# [3] = Solubility of the compound by high throughput solubility assay; type: physicochemical
# [4] = Inhibition of recombinant Escherichia coli DNA gyrase AB expressed in Escherichia coli BL21 (DE3) using relaxed pJT519 DNA as substrate preincubated for 20 mins followed by 5'-BODIPY-TMR-TTCTTCTTCT addition and measured after 1 hr by fluorescence anisotropy
# Staphylococcus aureus [5] = assay: Antibacterial activity against methicillin sensitive Staphylococcus aureus ARC516 by broth microdilution method; type: functional
# Staphylococcus aureus [6] = assay: Antibacterial activity against methicillin sensitive Staphylococcus aureus ARC516 in presence of human serum by broth microdilution method; type: functional
# Streptococcus pneumoniae = assay: Antibacterial activity against Streptococcus pneumoniae ARC548 by broth microdilution method; type: functional
# [7] = n-octanol/phosphate buffer partition coefficient, log D of the compound at pH 7.4 measured after 1 hr by UV-LC/MS based shake flask method; type: physicochemical
# [8] = Ratio of MIC for antibacterial activity against methicillin/quinolone-resistant Staphylococcus aureus ARC517 to protein binding in human plasma assessed as unbound fraction
# L5178Y = assay: Genotoxicity in mouse L5178Y cells using DAPI staining by microscopy based micronucleation assay; type: toxicity, cell-based
Structure (SMILES),MIC (Escherichia coli) [µM],MIC (Staphylococcus aureus [1]) [µM],MIC (Streptococcus pyogenes) [µM],"fraction unbound at 16 h, 10 µM [2]",MIC (Haemophilus influenzae) [µM],solubility [3] [µM],IC50 [4] [µM],MIC (Staphylococcus aureus [5]) [µM],MIC (Staphylococcus aureus [6]) [µM],MIC (Streptococcus pneumoniae) [µM],logD at 1 h [7],Ratio [8],NOAEL (L5178Y) [µM]
COCCNc1ncnn1-c1noc2c(F)c3c(cc12)CC1(C(=O)NC(=O)NC1=O)[C@H]1[C@H](C)O[C@H](C)CN31,25,0.098,< 0.2,0.077,0.39,6,0.038,0.039,< 0.2,< 0.2,2.2,–,–
C[C@@H]1CN2c3c(cc4c(-n5ncnc5N(C)C)noc4c3F)CC3(C(=O)NC(=O)NC3=O)[C@H]2[C@H](C)O1,100,0.78,0.78,0.13,1.6,> 1000,0.67,0.39,1.6,1.6,1.7,–,–
Cc1ncnn1-c1noc2c(F)c3c(cc12)CC1(C(=O)NC(=O)NC1=O)[C@H]1[C@H](C)O[C@H](C)CN31,50,0.39,0.55,0.098,1.6,22,0.34,0.2,0.39,0.78,2.1,–,–
C[C@@H]1CN2c3c(cc4c(-n5ncnc5NCC(=O)N5CC[C@@H](N(C)C)C5)noc4c3F)CC3(C(=O)NC(=O)NC3=O)[C@H]2[C@H](C)O1,25,1.6,0.39,0.26,1.6,690,0.08,0.2,0.2,< 0.2,1.3,–,–
C[C@@H]1CN2c3c(cc4c(-n5cc(C#N)cn5)noc4c3F)CC3(C(=O)NC(=O)NC3=O)[C@H]2[C@H](C)O1,25,0.2,–,0.044,–,10,0.4,< 0.2,0.39,–,2.4,4.5,–
C[C@@H]1CN2c3c(cc4c(-n5ncnc5N5CCOCC5)noc4c3F)CC3(C(=O)NC(=O)NC3=O)[C@H]2[C@H](C)O1,200,0.98,0.78,0.17,1.6,> 1000,0.66,0.39,0.78,1.6,1.6,–,–
CO/N=C1\CN(c2nc3c(cc2F)c(=O)c(C(=O)O)cn3C2CC2)CC1CN (stereo not given) [GEMIFLOXACIN],–,–,–,–,–,–,–,–,–,–,–,–,3
C[C@@H]1CN2c3c(cc4c(-n5ncnc5[C@@H](C)O)noc4c3F)CC3(C(=O)NC(=O)NC3=O)[C@H]2[C@H](C)O1,50,0.78,0.78,0.23,0.78,920,0.18,0.39,0.78,0.78,1.4,–,–
C[C@@H]1CN2c3c(cc4c(-n5ncnc5NCCO)noc4c3F)CC3(C(=O)NC(=O)NC3=O)[C@H]2[C@H](C)O1,25,0.78,0.39,0.14,0.39,625,0.27,0.39,< 0.2,0.39,1.6,–,–
C[C@@H]1CN2c3c(cc4c(-n5ncnc5NCCN(C)C)noc4c3F)CC3(C(=O)NC(=O)NC3=O)[C@H]2[C@H](C)O1,50,6.2,0.39,0.53,1.6,> 1000,0.15,0.78,0.78,0.39,1.4,–,> 400
C[C@@H]1CN2c3c(cc4c(-n5cnnc5)noc4c3F)CC3(C(=O)NC(=O)NC3=O)[C@H]2[C@H](C)O1,> 200,25,–,0.34,–,> 1000,0.3,6.25,12.5,–,0.54,74,–
COCCOc1ncnn1-c1noc2c(F)c3c(cc12)CC1(C(=O)NC(=O)NC1=O)[C@H]1[C@H](C)O[C@H](C)CN31,100,1.6,< 0.2,0.12,0.39,640,0.32,0.39,1.6,< 0.2,1.7,–,–
C[C@@H]1CN2c3c(cc4c(-n5ncnc5N)noc4c3F)CC3(C(=O)NC(=O)NC3=O)[C@H]2[C@H](C)O1,12,< 0.2,0.098,0.11,0.39,460,0.075,0.049,< 0.2,0.098,1.9,–,6
Cc1ncn(-c2noc3c(F)c4c(cc23)CC2(C(=O)NC(=O)NC2=O)[C@H]2[C@H](C)O[C@H](C)CN42)n1,100,0.78,0.78,0.053,1.6,29,1,0.2,0.78,3.1,1.9,–,–
C[C@@H]1CN2c3c(cc4c(-n5ncnc5NCCN5CCOCC5)noc4c3F)CC3(C(=O)NC(=O)NC3=O)[C@H]2[C@H](C)O1,100,3.5,0.39,0.11,1.6,150,0.31,< 0.2,0.78,0.39,2.1,–,–
C[C@@H]1CN2c3c(cc4c(-n5ccnc5)noc4c3F)CC3(C(=O)NC(=O)NC3=O)[C@H]2[C@H](C)O1 (racemic),50,12.5,–,0.031,–,12,0.49,1.56,12.5,–,2,400,–
C[C@@H]1CN2c3c(cc4c(-n5ncnc5[C@H](C)O)noc4c3F)CC3(C(=O)NC(=O)NC3=O)[C@H]2[C@H](C)O1,79,1.6,1.6,0.21,1.6,960,0.43,0.78,1.6,1.6,1.3,–,–
C[C@@H]1CN2c3c(cc4c(-n5nccn5)noc4c3F)CC3(C(=O)NC(=O)NC3=O)[C@H]2[C@H](C)O1,12.5,0.78,–,0.031,–,810,0.24,< 0.2,1.56,–,1.95,25,–
CNS(=O)(=O)c1cnn(-c2noc3c(F)c4c(cc23)CC2(C(=O)NC(=O)NC2=O)[C@H]2[C@H](C)O[C@H](C)CN42)c1,50,1.56,–,0.068,–,21,0.61,0.39,1.6,–,2.2,23,–
C[C@H](O)CNc1ncnn1-c1noc2c(F)c3c(cc12)CC1(C(=O)NC(=O)NC1=O)[C@H]1[C@H](C)O[C@H](C)CN31,25,0.63,0.19,0.12,0.39,200,0.26,< 0.2,< 0.2,0.19,1.9,–,–
C[C@@H]1CN2c3c(cc4c(-n5ncnc5NC[C@@H](C)O)noc4c3F)CC3(C(=O)NC(=O)NC3=O)[C@H]2[C@H](C)O1,25,0.63,< 0.2,0.13,0.39,> 1000,0.16,0.098,< 0.2,< 0.2,1.9,–,12
C[C@@H]1CN2c3c(cc4c(-n5cccn5)noc4c3F)CC3(C(=O)NC(=O)NC3=O)[C@H]2[C@H](C)O1 (racemic),25,0.78,–,< 0.01,–,29,–,0.39,3.1,–,3,>80,–
C[C@@H]1CN2c3c(cc4c(-n5ncnc5NCC(=O)N5CC[C@H](N(C)C)C5)noc4c3F)CC3(C(=O)NC(=O)NC3=O)[C@H]2[C@H](C)O1,50,2.2,0.39,0.26,1.6,880,0.18,0.2,0.2,< 0.2,1.7,–,12
C[C@@H]1CN2c3c(cc4c(-n5ncnc5C#N)noc4c3F)CC3(C(=O)NC(=O)NC3=O)[C@H]2[C@H](C)O1,6.2,< 0.2,0.39,0.076,0.39,560,0.32,< 0.2,0.39,0.39,2,–,–
